Tests used:
brain = assay: Maturation of TTM-001 capsid, NGS enrichment in brain of CD-1 Outbred mice; type: in vivo; settings: NGS fold-enrichment of TTM-001 matured AAV capsid variants in the brain of CD-1 Outbred mice; intravenous 1.0×10^12 VG/dose; 14 days in life; RNA; relative to non-matured TTM-001 control
Excerpt: This Example describes maturation of the TTM-001 (SEQ ID NO: 981 (amino acid) and 983 (DNA), comprising SEQ ID NO: 941) and TTM-002 (SEQ ID NO: 982 (amino acid) and 984 (DNA), comprising SEQ ID NO: 2) capsid variants to further enhance their transduction and biodistribution in the central nervous system and evolve the AAV capsid variants to provide further cross-species compatibility. Two approaches were used to mature the TTM-001 and TTM-002 capsid sequences in order to randomize and mutate within and around the peptide insert comprised within loop IV of the capsid variant. […] In the first maturation approach, sets of three contiguous amino acids were randomized across the mutagenesis region in the TTM-001 and TTM-002 sequences, which spanned from position 450 to position 466, numbered according to SEQ ID NO: 981 and 982. In the second maturation approach, mutagenic primers were used to introduce point mutations at a low frequency, scattered across the mutagenesis region in the TTM-001 and TTM-002 sequences ranging from position 449 to position 466, numbered according to SEQ ID NO: 981 and 982. AAV capsid variants arising from each maturation approach for TTM-001 were pooled together and AAV capsid variants arising from each maturation approach for TTM-002 were also pooled together, for subsequent testing and characterization in mice.
The library of pooled matured AAV capsid variants generated from TTM-001 or library of pooled matured AAV capsid variants generated from the TTM-002 matured AAV capsid variant each were intravenously injected into the tail vein of three female CD-1 Outbred mice (Charles River) at a dose of 1.0×10^12 VG/dose. After 14-days in life, the brains of the mice were isolated and RNA was extracted. Following RNA recovery and RT-PCR amplification, a systematic NGS enrichment analysis was performed to calculate the fold enrichment ratio relative to the corresponding TTM-001 or TTM-002 control, and the peptides comprised within the variants were identified. The data for the TTM-001 matured capsid variants is provided in Table 13 and the data for the TTM-002 matured capsid variants is provided in Table 14.

[1] = tested on: brains, heart, liver, muscle, and DRG of the NHPs; assay: Maturation of TTM-001 and TTM-002 capsids, NGS enrichment in NHP tissues; type: in vivo
Excerpt: This Example describes maturation of the AAV9 capsid variants, TTM-001 (SEQ ID NO: 981 (amino acid) and 983 (DNA), comprising SEQ ID NO: 941 (encoded by SEQ ID NO: 942)) and TTM-002 (SEQ ID NO: 982 (amino acid) and 984 (DNA), comprising SEQ ID NO: […] (encoded by SEQ ID NO: 944)) in NHPs to further enhance their transduction and biodistribution in the central nervous system as well as other tissues, and evolve the AAV capsid variants to provide further cross-species compatibility. Two approaches were used to mature the TTM-001 and TTM-002 capsid sequences in order to randomize and mutate within and around the peptide insert comprised within loop IV of the capsid variant. […] In the first maturation approach, sets of three contiguous amino acids were randomized across the mutagenesis region in the TTM-001 and TTM-002 sequences, which spanned from position 450 to position 466, numbered according to SEQ ID NO: 981 and 982. In the second maturation approach, mutagenic primers were used to introduce point mutations at a low frequency, scattered across the mutagenesis region in the TTM-001 and TTM-002 sequences ranging from position 449 to position 466, numbered according to SEQ ID NO: 981 and 982. AAV capsid variants arising from each maturation approach for TTM-001 and TTM-002 were pooled together, for subsequent testing and characterization in NHPs.
The library of pooled matured AAV capsid variants generated using the first maturation approach and the second maturation approach for the TTM-001 and TTM-002 AAV capsid variants were injected into two NHPs. […] Following RNA recovery and RT-PCR amplification, a systematic NGS enrichment analysis was performed to calculate the fold enrichment ratio relative to an AAV9 control, and the peptides comprised within the variants were identified.
Following the RNA recovery and NGS analysis from the second maturation approach, approximately 680,000 capsid variants were identified. The 680,000 matured capsid variants were then filtered based on samples with a raw virus count greater than 10 and a coefficient of variance (CV) of less than 1, which was calculated for each peptide across the brain samples taken from the two NHPs. […] Using this filtering criteria, this led to approximately 64,000 matured capsid variants.

[2] = NGS fold-enrichment, DRG, NHP, relative to AAV9
[3] = NGS fold-enrichment, brain, NHP, relative to AAV9
[4] = NGS fold-enrichment, heart, NHP, relative to AAV9
[5] = NGS fold-enrichment, liver DNA, NHP, relative to AAV9
[6] = NGS fold-enrichment, liver RNA, NHP, relative to AAV9
[7] = NGS fold-enrichment, muscle, NHP, relative to AAV9
[8] = NHP DRG, NGS, relative to AAV9 control
[9] = NHP brain, NGS, relative to AAV9 control
[10] = NHP heart, NGS, relative to AAV9 control
[11] = NHP liver DNA, NGS, relative to AAV9 control
[12] = NHP liver RNA, NGS, TTM-001 and TTM-002 matured AAV capsid variants, relative to AAV9 control
[13] = NHP muscle, NGS, relative to AAV9 control

Sequence: KTINGFRSPHLKAQNQQT
- Fold enrichment over TTM-001 (brain): 2.063 fold

Sequence: KTINGFRSPHSKAQNQQT
- Fold enrichment over TTM-001 (brain): 2.333 fold

Sequence: KTINGFSSPHRKAQNQQT
- Fold enrichment over TTM-001 (brain): 2.276 fold

Sequence: KTINGHLSPHRKAQNQQT
- Fold enrichment over TTM-001 (brain): 2.851 fold

Sequence: KTINGHRSPHLKAQNQQT
- Fold enrichment over TTM-001 (brain): 2.320 fold

Sequence: KTINGHSSPHRKAQNQQT
- Fold enrichment over TTM-001 (brain): 2.639 fold

Sequence: KTINGIASPHRKAQNQQT
- Fold enrichment over TTM-001 (brain): 2.099 fold

Sequence: KTINGILSPHRKAQNQQT
- Fold enrichment over TTM-001 (brain): 2.475 fold

Sequence: KTINGIRSPHTKAQNQQT
- Fold enrichment over TTM-001 (brain): 2.793 fold

Sequence: KTINGKLSPHMKAQNQQT
- Fold enrichment over TTM-001 (brain): 2.449 fold

Sequence: KTINGKRSPHSKAQNQQT
- Fold enrichment over TTM-001 (brain): 3.611 fold

Sequence: KTINGKTSPHGKAQNQQT
- Fold enrichment over TTM-001 (brain): 2.717 fold

Sequence: KTINGLASPHRKAQNQQT
- Fold enrichment over TTM-001 (brain): 2.737 fold

Sequence: KTINGLFSPHRKAQNQQT
- Fold enrichment over TTM-001 (brain): 2.331 fold

Sequence: KTINGLLSPHRKAQNQQT
- Fold enrichment over TTM-001 (brain): 3.026 fold

Sequence: KTINGLLSPHWKAQNQQT
- Fold enrichment over TTM-001 (brain): 4.173 fold

Sequence: KTINGLPSPHRKAQNQQT
- Fold enrichment over TTM-001 (brain): 2.719 fold

Sequence: KTINGLRSPHRKAQNQQT
- Fold enrichment over TTM-001 (brain): 3.676 fold

Sequence: KTINGLRSPHSKAQNQQT
- Fold enrichment over TTM-001 (brain): 2.238 fold

Sequence: KTINGLTSPHRKAQNQQT
- Fold enrichment over TTM-001 (brain): 2.663 fold

Sequence: KTTGRSGSPHSKAQNQQT
- Fold Enrichment relative to AAV9, DRG (NHP) [1, 2]: 0.000 fold
- Fold Enrichment relative to AAV9, Brain (NHP) [1, 3]: 0.000 fold
- Fold Enrichment relative to AAV9, Heart (NHP) [1, 4]: 0.000 fold
- Fold Enrichment relative to AAV9, Liver DNA (NHP) [1, 5]: 0.126 fold
- Fold Enrichment relative to AAV9, Liver RNA (NHP) [1, 6]: 10.863 fold
- Fold Enrichment relative to AAV9, Muscle (NHP) [1, 7]: 0.000 fold

Sequence: KTTRCSGSPHSKAQNQQT
- Fold Enrichment relative to AAV9, DRG (NHP) [1, 8]: 0.000 fold
- Fold Enrichment relative to AAV9, Brain (NHP) [1, 9]: 0.000 fold
- Fold Enrichment relative to AAV9, Heart (NHP) [1, 10]: 0.000 fold
- Fold Enrichment relative to AAV9, Liver DNA (NHP) [1, 11]: 8.168 fold
- Fold Enrichment relative to AAV9, Liver RNA (NHP) [1, 12]: 12.639 fold
- Fold Enrichment relative to AAV9, Muscle (NHP) [1, 13]: 0.000 fold

Sequence: KTTRKSGSPHSKAQNQQT
- Fold Enrichment relative to AAV9, DRG (NHP) [1, 8]: 0.000 fold
- Fold Enrichment relative to AAV9, Brain (NHP) [1, 9]: 0.000 fold
- Fold Enrichment relative to AAV9, Heart (NHP) [1, 10]: 0.000 fold
- Fold Enrichment relative to AAV9, Liver DNA (NHP) [1, 11]: 2.617 fold
- Fold Enrichment relative to AAV9, Liver RNA (NHP) [1, 12]: 18.849 fold
- Fold Enrichment relative to AAV9, Muscle (NHP) [1, 13]: 0.000 fold

Sequence: KWLTGSGSPHSKAQNQQT (peptide inserted in AAV capsid)
- Fold Enrichment relative to AAV9, DRG (NHP) [1, 8]: 0.000 fold
- Fold Enrichment relative to AAV9, Brain (NHP) [1, 9]: 0.364 fold
- Fold Enrichment relative to AAV9, Heart (NHP) [1, 10]: 0.000 fold
- Fold Enrichment relative to AAV9, Liver DNA (NHP) [1, 11]: 2.388 fold
- Fold Enrichment relative to AAV9, Liver RNA (NHP) [1, 12]: 26.975 fold
- Fold Enrichment relative to AAV9, Muscle (NHP) [1, 13]: 2578.486 fold

Sequence: KYIVGSGSPHSKAQNQQT (peptide inserted in AAV capsid)
- Fold Enrichment relative to AAV9, DRG (NHP) [1, 8]: 0.000 fold
- Fold Enrichment relative to AAV9, Brain (NHP) [1, 9]: 0.000 fold
- Fold Enrichment relative to AAV9, Heart (NHP) [1, 10]: 0.000 fold
- Fold Enrichment relative to AAV9, Liver DNA (NHP) [1, 11]: 4.480 fold
- Fold Enrichment relative to AAV9, Liver RNA (NHP) [1, 12]: 94.721 fold
- Fold Enrichment relative to AAV9, Muscle (NHP) [1, 13]: 0.000 fold

Sequence: KYSAGSGSPHSKAQNQQT (peptide inserted in AAV capsid)
- Fold Enrichment relative to AAV9, DRG (NHP) [1, 8]: 0.000 fold
- Fold Enrichment relative to AAV9, Brain (NHP) [1, 9]: 0.000 fold
- Fold Enrichment relative to AAV9, Heart (NHP) [1, 10]: 0.000 fold
- Fold Enrichment relative to AAV9, Liver DNA (NHP) [1, 11]: 1.824 fold
- Fold Enrichment relative to AAV9, Liver RNA (NHP) [1, 12]: 41.310 fold
- Fold Enrichment relative to AAV9, Muscle (NHP) [1, 13]: 0.000 fold

Sequence: KYSMGSGSPHSKAQNQQT (peptide inserted in AAV capsid)
- Fold Enrichment relative to AAV9, DRG (NHP) [1, 2]: 0.000 fold
- Fold Enrichment relative to AAV9, Brain (NHP) [1, 3]: 0.000 fold
- Fold Enrichment relative to AAV9, Heart (NHP) [1, 4]: 0.000 fold
- Fold Enrichment relative to AAV9, Liver DNA (NHP) [1, 5]: 1.587 fold
- Fold Enrichment relative to AAV9, Liver RNA (NHP) [1, 6]: 10.478 fold
- Fold Enrichment relative to AAV9, Muscle (NHP) [1, 7]: 0.000 fold

Sequence: KYVFGSGSPHSKAQNQQT (peptide inserted in AAV capsid)
- Fold Enrichment relative to AAV9, DRG (NHP) [1, 8]: 0.000 fold
- Fold Enrichment relative to AAV9, Brain (NHP) [1, 9]: 0.000 fold
- Fold Enrichment relative to AAV9, Heart (NHP) [1, 10]: 0.000 fold
- Fold Enrichment relative to AAV9, Liver DNA (NHP) [1, 11]: 2.346 fold
- Fold Enrichment relative to AAV9, Liver RNA (NHP) [1, 12]: 22.232 fold
- Fold Enrichment relative to AAV9, Muscle (NHP) [1, 13]: 0.000 fold

Sequence: KYYTGSGSPHSKAQNQQT (peptide inserted in AAV capsid)
- Fold Enrichment relative to AAV9, DRG (NHP) [1, 8]: 0.000 fold
- Fold Enrichment relative to AAV9, Brain (NHP) [1, 9]: 0.000 fold
- Fold Enrichment relative to AAV9, Heart (NHP) [1, 10]: 0.000 fold
- Fold Enrichment relative to AAV9, Liver DNA (NHP) [1, 11]: 1.199 fold
- Fold Enrichment relative to AAV9, Liver RNA (NHP) [1, 12]: 38.777 fold
- Fold Enrichment relative to AAV9, Muscle (NHP) [1, 13]: 0.000 fold
